These results are taken from PubChem BioAssay (NCI).

Some test systems named below: HT29 colon; 786-0 renal; MOLT-4 leukemia; HL-60(TB) leukemia; TK-10 renal; OVCAR-8 ovarian; SNB-75 CNS; OVCAR-4 ovarian; OVCAR-5 ovarian; NCI-H226 lung.
Holding throughout (experiment): NCI anticancer screen, dose series, 48 h

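Results reflect a 48-hour exposure of cells in 96-well plates to compound at five concentrations. Here, GI50 denotes the concentration required for 50% inhibition of growth. TGI: concentration producing complete growth inhibition.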 Where only a bound is given, the exact number is not on record here.

As for `CCCNCc1cc(C)cc2c1nc(N1CCNCC1)n2Cc1cc(C)c(F)c(C)c1`, the GI50 in the assay with HT29 colon was 2.09 µM; in the assay with 786-0 renal, 1.86 µM; with MOLT-4 leukemia, 1.8 µM; in the assay on HL-60(TB) leukemia, 1.76 µM; with TK-10 renal, 14.3 µM; with OVCAR-8 ovarian, 3.9 µM. The GI50 with SNB-75 CNS is 12.1 µM; with OVCAR-4 ovarian, 7.12 µM; in the assay on OVCAR-5 ovarian, 7.58 µM; in the assay on NCI-H226 lung, 19.1 µM. The TGI stood at 5.29 µM in the assay on HT29 colon; 3.96 µM with 786-0 renal; 4.39 µM in the assay on MOLT-4 leukemia; 3.8 µM in the assay on HL-60(TB) leukemia; 28 µM in the assay on TK-10 renal; 13.8 µM with OVCAR-8 ovarian. The TGI came to 26.4 µM in the assay on SNB-75 CNS, 21.8 µM in the assay with OVCAR-4 ovarian, 22.3 µM in the assay with OVCAR-5 ovarian and 38.2 µM with NCI-H226 lung.
Regarding `Clc1cc(Cl)c2c(Cl)cc(Cl)c3c2c1N=S=N3`, the TGI in the assay with HT29 colon, in the assay with 786-0 renal, with MOLT-4 leukemia, in the assay on HL-60(TB) leukemia, in the assay with TK-10 renal and in the assay on OVCAR-8 ovarian was over 100 µM in each case. The TGI with SNB-75 CNS, with OVCAR-4 ovarian, in the assay on OVCAR-5 ovarian and in the assay on NCI-H226 lung was over 100 µM each time.
Turning to `COc1ccc(C2C(C#N)=C(N)OC3=C2CCCc2ccc(F)cc23)cc1OC` (stereo not given), the GI50 in the assay with HT29 colon is 29.6 µM; in the assay with 786-0 renal, 14.7 µM; in the assay on MOLT-4 leukemia, over 38.2 µM; with HL-60(TB) leukemia, 32 µM; in the assay on TK-10 renal, 28.8 µM; in the assay with OVCAR-8 ovarian, 21.4 µM. Moreover, the GI50 in the assay on SNB-75 CNS was 34.7 µM; in the assay on OVCAR-4 ovarian, 23 µM; in the assay with OVCAR-5 ovarian, 24.7 µM; in the assay with NCI-H226 lung it was 19.6 µM. Moreover, the TGI with HT29 colon was over 72.4 µM; in the assay on 786-0 renal it was 29.8 µM; in the assay on MOLT-4 leukemia, over 66.9 µM; in the assay with HL-60(TB) leukemia, over 100 µM; in the assay with TK-10 renal it was 56.3 µM; with OVCAR-8 ovarian, 53.5 µM. In addition, the TGI in the assay on SNB-75 CNS is over 84.6 µM; in the assay with OVCAR-4 ovarian, 68 µM; with OVCAR-5 ovarian, 65.2 µM; in the assay on NCI-H226 lung it was 43.9 µM.
Take `CCOC(=O)Cc1nc(/C(C#N)=C/c2ccco2)[nH]c(=O)c1C#N`: the TGI in the assay on HT29 colon, with 786-0 renal, with MOLT-4 leukemia, in the assay with HL-60(TB) leukemia, with TK-10 renal and in the assay with OVCAR-8 ovarian was over 100 µM throughout. Besides, the TGI in the assay on SNB-75 CNS, in the assay with OVCAR-4 ovarian, in the assay with OVCAR-5 ovarian and in the assay on NCI-H226 lung was over 100 µM each time.
Take `Cc1noc(C)c1-c1ccc2[nH]c(=O)n3c2c1OC[C@@H]3c1ccccn1`: the GI50 with HT29 colon is 0.415 µM; with 786-0 renal it was 3.94 µM; in the assay with MOLT-4 leukemia, 11.5 µM; with HL-60(TB) leukemia, 0.144 µM; with TK-10 renal it was 0.312 µM; with OVCAR-8 ovarian, 11 µM. Besides, the GI50 in the assay on SNB-75 CNS is 0.0166 µM; with OVCAR-4 ovarian, 1.03 µM; in the assay on OVCAR-5 ovarian, 5.87 µM; in the assay with NCI-H226 lung, 2.22 µM. The TGI with HT29 colon, in the assay with 786-0 renal, with MOLT-4 leukemia, in the assay on HL-60(TB) leukemia, in the assay on TK-10 renal and in the assay on OVCAR-8 ovarian was over 100 µM in each case. Further, the TGI with SNB-75 CNS is 0.171 µM; in the assay on OVCAR-4 ovarian, over 100 µM; in the assay on OVCAR-5 ovarian, over 100 µM; in the assay on NCI-H226 lung, over 100 µM.
Take `CN(C)CCNC(=O)Nc1c(C#N)[n+]([O-])c2cc(Cl)c(Cl)cc2[n+]1[O-]`: the GI50 in the assay on HT29 colon was 27.3 µM; with 786-0 renal, 35.8 µM; with MOLT-4 leukemia, 3.92 µM; with HL-60(TB) leukemia it was 27.2 µM; with TK-10 renal it was 53.7 µM; with OVCAR-8 ovarian it was 21.4 µM. Also, the GI50 was 14.7 µM in the assay on SNB-75 CNS, 17.8 µM with OVCAR-4 ovarian, 87.1 µM in the assay with OVCAR-5 ovarian and 22.3 µM in the assay with NCI-H226 lung. Also, the TGI with HT29 colon was over 100 µM; with 786-0 renal, over 100 µM; in the assay on MOLT-4 leukemia, 20.9 µM; in the assay with HL-60(TB) leukemia it was over 100 µM; with TK-10 renal, over 100 µM; in the assay with OVCAR-8 ovarian, over 100 µM. Also, the TGI with SNB-75 CNS, with OVCAR-4 ovarian, with OVCAR-5 ovarian and in the assay with NCI-H226 lung was over 100 µM throughout.
With `Oc1c2c(c(O)c3ccccc13)=N[C@@H](c1ccccc1)[C@H](c1ccccc1)N=2`, the TGI in the assay with HT29 colon, with 786-0 renal, in the assay on MOLT-4 leukemia, with HL-60(TB) leukemia, in the assay on TK-10 renal and in the assay with OVCAR-8 ovarian was over 100 µM in each case. The TGI with SNB-75 CNS, in the assay with OVCAR-4 ovarian, with OVCAR-5 ovarian and in the assay on NCI-H226 lung was over 100 µM in each case.
In the case of `CCCCCCNc1nc(NCCCCCC)c2[nH]c(NCCCCCC)nc2n1`, the GI50 in the assay on HT29 colon was 5.59 µM; in the assay on 786-0 renal, 14.5 µM; with MOLT-4 leukemia, 3.12 µM; in the assay on HL-60(TB) leukemia, 1.58 µM; with TK-10 renal it was 21.3 µM; in the assay on OVCAR-8 ovarian it was 9.96 µM. For the same compound, the GI50 in the assay with SNB-75 CNS is 4.31 µM; in the assay on OVCAR-4 ovarian it was 6.97 µM; with OVCAR-5 ovarian, 9.31 µM; in the assay with NCI-H226 lung, 15.4 µM. The TGI in the assay with HT29 colon amounted to 18.8 µM; with 786-0 renal, 27.6 µM; with MOLT-4 leukemia, 35.4 µM; with HL-60(TB) leukemia, 4.22 µM; with TK-10 renal, 46.6 µM; in the assay on OVCAR-8 ovarian, 30.8 µM. The TGI in the assay with SNB-75 CNS came to 20.7 µM; in the assay with OVCAR-4 ovarian, 21.2 µM; in the assay on OVCAR-5 ovarian it was 24.7 µM; with NCI-H226 lung, 34.3 µM.
In the case of `C=CC(=O)N1CCN(c2ncnc3c(F)c(-c4c(O)cccc4F)c(Cl)cc23)CC1`, the GI50 in the assay on HT29 colon was 25 µM; with 786-0 renal, 11.4 µM; in the assay on MOLT-4 leukemia it was 7.04 µM; in the assay on HL-60(TB) leukemia, 6.76 µM; in the assay on TK-10 renal, 16.1 µM; in the assay on OVCAR-8 ovarian it was 19.3 µM. For the same compound, the GI50 was 7.54 µM in the assay with SNB-75 CNS, 14.9 µM in the assay with OVCAR-4 ovarian, 18.4 µM in the assay with OVCAR-5 ovarian and 17 µM with NCI-H226 lung. For the same compound, the TGI in the assay on HT29 colon worked out at 77.7 µM; with 786-0 renal, 25.4 µM; with MOLT-4 leukemia, 56.9 µM; in the assay with HL-60(TB) leukemia it was 45.6 µM; in the assay on TK-10 renal, 43.4 µM; with OVCAR-8 ovarian, 67 µM. Moreover, the TGI in the assay with SNB-75 CNS was found to be 22.6 µM; in the assay on OVCAR-4 ovarian, 43.4 µM; in the assay on OVCAR-5 ovarian, 34.1 µM; in the assay on NCI-H226 lung, 46.2 µM.
